In PubChem BioAssay (NCI):
Where “and” joins values, the source holds several entries; their conditions need not be identical. Equal values may be shown once.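 Dose response: 5 concentrations. Exposure: 48 h. Format: 96-well plates. Endpoint: linear interpolation; highest concentration if not reached. At the GI50, growth is halved. The concentration for full growth arrest is given as TGI.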

Experiments:
Assay in all cases: DTP human tumour cell line panel, 48 h
UO-31 renal = test system: UO-31 renal
PC-3 prostate = test system: PC-3 prostate
SK-MEL-2 melanoma = test system: SK-MEL-2 melanoma
RXF 393 renal = test system: RXF 393 renal
K-562 leukemia = test system: K-562 leukemia
CCRF-CEM leukemia = test system: CCRF-CEM leukemia
UACC-257 melanoma = test system: UACC-257 melanoma
HOP-92 NSCLC = test system: HOP-92 NSCLC
KM12 colon = test system: KM12 colon
SK-MEL-28 melanoma = test system: SK-MEL-28 melanoma

SMILES	GI50 (UO-31 renal)	TGI (UO-31 renal)	GI50 (PC-3 prostate)	TGI (PC-3 prostate)	GI50 (SK-MEL-2 melanoma)	TGI (SK-MEL-2 melanoma)	GI50 (RXF 393 renal)	TGI (RXF 393 renal)	GI50 (K-562 leukemia)	TGI (K-562 leukemia)	GI50 (CCRF-CEM leukemia)	TGI (CCRF-CEM leukemia)	GI50 (UACC-257 melanoma)	TGI (UACC-257 melanoma)	GI50 (HOP-92 NSCLC)	TGI (HOP-92 NSCLC)	GI50 (KM12 colon)	TGI (KM12 colon)	GI50 (SK-MEL-28 melanoma)	TGI (SK-MEL-28 melanoma)
Oc1ccc(Cl)cc1CNc1nc2ccccc2[nH]1	4.73 µM	19.1 µM	9.75 µM	23.3 µM	15.9 µM	33 µM	10.3 µM	23.9 µM	15.4 µM	56 µM	17.9 µM	88.5 µM	14.7 µM	29.4 µM	2.37 µM	10.4 µM	13.3 µM	27 µM	13.6 µM	27.9 µM
Cc1nc(Nc2nc3ccccc3o2)nc(-c2cccc([N+](=O)[O-])c2)c1C(=O)Nc1ccc(F)c(Cl)c1	1.87 µM	7.09 µM	0.797 µM	11.5 µM	2.03 µM	4.73 µM	2.83 µM	> 100 µM	1.84 µM	> 100 µM	2.34 µM	24.2 µM	2.31 µM	8.23 µM	1.39 µM	4.66 µM	1.96 µM	12.4 µM	3.83 µM	> 100 µM
CSc1cccc(NC(=O)OC2CCCCCCCCCCC2)c1	–	22 µM	–	> 100 µM	–	39.4 µM	–	70.9 µM	–	93.7 µM	–	45.5 µM	–	38.7 µM	–	> 100 µM	–	31.5 µM	–	> 100 µM
[Cl][Cd][Cl]	> 74 µM and 74.5 µM	131 µM	10.5 µM	23.6 µM	16.4 µM and 8.88 µM	24.8 µM and 18.9 µM	50.1 µM and 13.6 µM	41.2 µM	2.01 µM and 20 µM and 14.8 µM	51.3 µM and 147 µM	20.7 µM and 9.08 µM	56.7 µM and 89.7 µM	22 µM and 27 µM	56.2 µM and 74.9 µM	> 80.2 µM and 15.2 µM	35.3 µM	17.9 µM and 9.62 µM	35.1 µM and 30.1 µM	17.9 µM and 11.6 µM	34.6 µM and 30.4 µM
C=C1c2c(Cl)ccc(O)c2C(O)=C2C(=O)[C@]3(O)C(O)=C(C(N)=O)C(=O)[C@@H](N(C)C)[C@@H]3[C@@H](O)[C@H]12	1.19 µM	6.22 µM	1.34 µM	31.4 µM	0.727 µM	1.98 µM	0.534 µM	2.82 µM	1.66 µM	> 50 µM	1.45 µM	39.6 µM	0.888 µM	3.61 µM	0.669 µM	2.16 µM	1.49 µM	6.17 µM	1.08 µM	4.45 µM
COc1cc2c3c(n(CCCN=[N+]=[N-])c(=O)c2cc1OC)-c1ccc(N(C)C)cc1C3=O	> 100 µM	> 100 µM	> 100 µM	> 100 µM	> 100 µM	> 100 µM	> 100 µM	> 100 µM	> 100 µM	> 100 µM	> 100 µM	> 100 µM	> 100 µM	> 100 µM	> 100 µM	> 100 µM	> 100 µM	> 100 µM	> 100 µM	> 100 µM
CN(C)CCN1C(=O)c2cccc3cccc(c23)C1=O	11 µM	> 25 µM	18.7 µM	> 25 µM	> 25 µM	> 25 µM	13.4 µM	> 25 µM	9.68 µM	> 25 µM	14.5 µM	> 25 µM	> 25 µM	> 25 µM	14.8 µM	> 25 µM	12.9 µM	> 25 µM	> 25 µM	> 25 µM
NCCSCCc1ccccc1	–	> 100 µM	–	> 100 µM	–	> 100 µM	–	> 100 µM	–	> 100 µM	–	–	–	> 100 µM	–	> 100 µM	–	> 100 µM	–	> 100 µM
Cc1cccc(Nc2cnc(N)nc2N)c1	–	> 100 µM	–	> 100 µM	–	> 100 µM	–	> 100 µM	–	> 100 µM	–	> 100 µM	–	> 100 µM	–	> 100 µM	–	> 100 µM	–	> 100 µM
COc1ccc2nc(NC(=O)c3cccnc3Nc3cc(OC)c(OC)c(OC)c3)sc2c1	9.3 µM	27.2 µM	6.67 µM	23.2 µM	–	–	2.6 µM	8.85 µM	8.91 µM	> 100 µM	20.1 µM	> 100 µM	14.6 µM	29.6 µM	2.24 µM	9.5 µM	4.51 µM	19 µM	7.88 µM	21.3 µM
COC1=C2CC(C)CC(OC)C(O)C(C)/C=C(\C)C(OC(N)=O)C(OC)/C=C\C=C(/C)C(=O)NC(=C(/C=N/N3CCCCC3)C1=O)C2=O (stereo not given)	–	23.4 µM	–	> 100 µM	–	32.5 µM	–	14.3 µM	–	21.6 µM	–	7.85 µM	–	27.7 µM	–	35.4 µM	–	25.1 µM	–	37 µM
O=[N+]([O-])c1ccc(S(=O)(=O)Cc2ccccc2)c2nonc12	–	45.1 µM	–	34.6 µM	–	42.2 µM	–	33.5 µM	–	76.7 µM	–	67.8 µM	–	30.1 µM	–	39.7 µM	–	38.7 µM	–	38.5 µM
OCCN1CCN(CC/C=C2\c3ccccc3Sc3ccc(Cl)cc32)CC1	2.14 µM and 1.96 µM	7.66 µM and 6.24 µM	2.75 µM and 2.96 µM	11.8 µM and 13.4 µM	2.75 µM and 2.26 µM	5.98 µM and 4.9 µM	4.16 µM	11.4 µM	1.52 µM and 1.77 µM	2.94 µM and 3.68 µM	1.61 µM and 3.29 µM	4.58 µM and 11.9 µM	1.97 µM and 1.71 µM	4.18 µM and 3.17 µM	1.02 µM and 2.44 µM	6.1 µM and 14.1 µM	2.73 µM and 2.81 µM	6.02 µM and 7.34 µM	1.66 µM	3.91 µM and 3.03 µM
O=C1C=CC(O)C2C1CC13SSC4(CC5C(=O)C=CC(O)C5N4C1=O)C(=O)N23 (stereo not given)	–	1.27 µM	–	1.13 µM	–	3.56 µM	–	1.48 µM	–	> 100 µM	–	1.95 µM	–	0.768 µM	–	0.573 µM	–	0.342 µM	–	1.91 µM
CC(C)CCN[C@@H]1CCc2cc(O)c(N3CC(=O)NS3(=O)=O)c(F)c2C1	16.8 µM	> 100 µM	> 100 µM	> 100 µM	> 100 µM	> 100 µM	0.812 µM	8.01 µM	> 100 µM	> 100 µM	> 100 µM	> 100 µM	> 100 µM	> 100 µM	16.1 µM	> 100 µM	> 100 µM	> 100 µM	> 100 µM	> 100 µM
Cn1cnc([N+](=O)[O-])c1Sc1ncn[nH]1	35.2 µM	> 100 µM	> 100 µM	> 100 µM	40.9 µM	> 100 µM	29 µM	> 100 µM	32.3 µM	> 100 µM	28.6 µM	> 100 µM	68.2 µM	> 100 µM	29.2 µM	> 100 µM	> 100 µM	> 100 µM	> 100 µM	> 100 µM
CC(Br)C(=O)Nc1ccc(C(=O)O)c(O)c1 (stereo not given)	–	> 100 µM	–	> 100 µM	–	> 100 µM	–	> 100 µM	–	> 100 µM	–	43.6 µM	–	> 100 µM	–	> 100 µM	–	> 100 µM	–	> 100 µM
CCn1c2ccccc2c2cc(C(O)c3cccc4ncccc34)ccc21 (stereo not given)	0.285 µM	> 100 µM	0.0413 µM	> 85.7 µM	0.0543 µM	39.4 µM	0.0518 µM	–	0.0389 µM	10.9 µM	0.0484 µM	> 100 µM	–	–	0.0324 µM	4.98 µM	0.0421 µM	6.56 µM	3.47 µM	> 100 µM
CCOC(=O)c1c(C)c(C)n2c1NC(=O)C2	–	> 100 µM	–	> 100 µM	–	> 100 µM	–	> 78.2 µM	–	> 100 µM	–	> 100 µM	–	> 100 µM	–	> 100 µM	–	> 100 µM	–	> 100 µM
C=CCCCc1ccc(C(O)CCCCCCCCCCCC)o1 (stereo not given)	16.3 µM	30.3 µM	19.8 µM	46 µM	19.5 µM	42.9 µM	19.6 µM	39.3 µM	24.5 µM	> 100 µM	23.1 µM	56.8 µM	21.8 µM	48.2 µM	15.4 µM	31.9 µM	21.3 µM	46 µM	20.6 µM	50.6 µM
Cc1c(Sc2ccccc2)[n+](=O)c2cc(Cl)c(Cl)cc2n1[O-]	> 100 µM	> 100 µM	> 100 µM	> 100 µM	> 100 µM	> 100 µM	23.2 µM	90.1 µM	2.22 µM	11.3 µM	32.8 µM	> 100 µM	16 µM	44.6 µM	20 µM	51.4 µM	> 100 µM	> 100 µM	> 100 µM	> 100 µM
COc1cc(/C=C/C(=O)c2cccnc2Nc2ccc(F)cc2)cc(OC)c1OC	5.62 µM	48 µM	3.95 µM	20 µM	2.52 µM	5.26 µM	2.81 µM	8.97 µM	–	–	2.45 µM	9.87 µM	2.9 µM	21.6 µM	1.67 µM	5.65 µM	3.72 µM	17.6 µM	3.22 µM	17.3 µM
COc1ccc(Nc2cc(C)nc(N3CCN(c4ccnc5cc(Cl)ccc45)CC3)n2)cc1	2.24 µM	> 100 µM	2.21 µM	> 100 µM	–	–	2.79 µM	21 µM	2.34 µM	> 100 µM	2.85 µM	> 100 µM	3.34 µM	> 100 µM	1.04 µM	5.59 µM	1.64 µM	31.6 µM	–	–
Cc1ccc(-c2nc(N3CCCNCC3)c3oc(-c4ccc(C)cc4)nc3n2)cc1	1.38 µM	2.68 µM	1.51 µM	2.91 µM	21.3 µM	45.4 µM	1.65 µM	3.14 µM	0.946 µM	2.68 µM	–	–	19.8 µM	41.1 µM	1.01 µM	2.3 µM	1.72 µM	3.2 µM	1.93 µM	3.51 µM
C/C=C(\C)C(=O)N[C@H]1C(O)C[C@]2(C)C3CC[C@@]4(C)C(CC[C@@H]4C(C)N(C)C)C3CCC2C1O (stereo not given in full)	2.03 µM	5.73 µM	8.72 µM	> 52.6 µM	24.1 µM	49.1 µM	7.53 µM	23.2 µM	1.9 µM	8.34 µM	7.76 µM	75.8 µM	3.22 µM	9.75 µM	6.44 µM	33.4 µM	6.85 µM	25.8 µM	2.04 µM	3.83 µM
CCN(CC)CCSCCCNc1c2ccc(Cl)cc2nc2ccc(OC)cc12	1.27 µM	3.29 µM	1.23 µM	3.06 µM	2.06 µM	3.87 µM	0.925 µM	2.38 µM	–	–	1.26 µM	4.72 µM	2.06 µM	3.85 µM	1.64 µM	3.41 µM	0.802 µM	5.03 µM	1.84 µM	3.8 µM
CCN(CC)CCOc1ccc(C(=O)/C=C\c2ccc(Cl)cc2Cl)cc1	4.06 µM	17.2 µM	4.1 µM	14.5 µM	15 µM	28.5 µM	5.13 µM	18.1 µM	2.41 µM	9.13 µM	2.57 µM	9.09 µM	4.51 µM	15.2 µM	3.63 µM	16.3 µM	1.92 µM	4.16 µM	2.55 µM	7.75 µM
CNC(=O)OCC1C2=C(C(=O)C(C)=C(N)C2=O)N2CC3C(N3C)C12OC (stereo not given)	–	–	–	64.7 µM	–	55.7 µM	–	57.1 µM	–	> 100 µM	–	> 100 µM	–	70.9 µM	–	> 100 µM	–	–	–	> 100 µM
COc1ccc(OC)c(Nc2nc(-c3c(C)nc4sccn34)cs2)c1	29 µM	> 100 µM	18.1 µM	> 100 µM	> 100 µM	> 100 µM	36.3 µM	> 100 µM	–	–	> 100 µM	> 100 µM	> 100 µM	> 100 µM	8.63 µM	98.4 µM	> 100 µM	> 100 µM	58.9 µM	> 100 µM
